Assays:
Type in all cases: in vivo
[1] = system: apomorphine-induced climbing; assay: apomorphine-induced climbing in mice, Compound 1 alone or with haloperidol (Experiment 1); settings: for ED50: Mus musculus, sc, apomorphine 1 mg/kg s.c., read-out: ED50 for apomorphine block
Method: (§1) Using (7-(2,6-dichlorophenyl)-5-fluoro-2,3-dihydrobenzofuran-2-yl)methanamine (Compound 1) as an example, the present Example describes two experiments in which a compound of formula I, was administered in combination with either a typical (exemplified by haloperidol) or atypical (exemplified by clozapine). The combination reduced apomorphine-induced climbing without side effects.
(§2) Mice were acclimated to the climbing cages for at least 1 hour and then dosed with either the vehicle or a dose of haloperidol or clozapine followed by a dose of either vehicle or a dose of Compound 1. Thirty minutes after dosing all mice received 1 mg/kg s.c. apomorphine and returned to the climbing cages. Five minutes after apomorphine the mice were observed and scored for climbing and stereotypy every 5 minutes for the 30 minute test session.

[2] = system: catalepsy induced by haloperidol; assay: catalepsy (bar test), extra-pyramidal side effect liability, Compound 1 with haloperidol; settings: Compound 1 3 mg/kg with haloperidol 0.1 & 0.17 mg/kg; 30, 60, 90 and 120 minutes after dosing; mice
Method: Using (7-(2,6-dichlorophenyl)-5-fluoro-2,3-dihydrobenzofuran-2-yl)methanamine (Compound 1) as an example, the present Example describes an experiment in which a compound of formula I was administered in combination with haloperidol to assess extra-pyramidal side effect liability, as represented by cataleptic behavior. [table] Mice were dosed with either the vehicle or a dose of haloperidol followed by a dose of either vehicle or a dose of Compound 1. Thirty, 60, 90 and 120 minutes after dosing, the forelegs are draped over a thin horizontal rod 1.75″ high. The number of seconds up to 60 sec for which the mouse remains on the bar is recorded at each test point and presented as the percent of maximum possible response (60 sec).

[3] = system: apomorphine-induced climbing; assay: apomorphine-induced climbing in mice, Compound 1 alone or with clozapine (Experiment 2); settings: for ED50: Mus musculus, sc, apomorphine 1 mg/kg s.c., read-out: ED50 for apomorphine block
Method: as §1, §2

[4] = Compound 1 0.3, 1 & 3 mg/kg co-administered with clozapine 3 & 5.4 mg/kg

In the case of `NCC1Cc2cc(F)cc(-c3c(Cl)cccc3Cl)c2O1` (centres unmarked) [Compound 1, (7-(2,6-dichlorophenyl)-5-fluoro-2,3-dihydrobenzofuran-2-yl)methanamine], the “block of apomorphine induced climbing versus either compound alone” value ([1]; Compound 1 0.3, 1 & 3 mg/kg co-administered with haloperidol 0.17 mg/kg) is reported as “greater block of apomorphine induced climbing”, the effect on stereotypy ([1]; Compound 1 0.3, 1 & 3 mg/kg co-administered with haloperidol 0.17 mg/kg, relative to haloperidol alone) is reported as “no effect on stereotypy” and the ED50 ([1]; Experiment 1, Compound 1 alone) is reported as 1.81 mg/kg. For the same compound, the ED50 ([1]; Experiment 1, co-administered with 0.1 mg/kg of haloperidol) was 1.49 mg/kg, the ED50 ([1]; Experiment 1, co-administered with 0.17 mg/kg of haloperidol) was 0.534 mg/kg and the “catalepsy, percent of maximum possible response (60 sec)” value [2] was “up to 45 % of maximum catalepsy”. The “block of apomorphine induced climbing versus either compound alone” value [3, 4] was “greater block of apomorphine induced climbing”, the effect on stereotypy [3, 4] was “no effect on stereotypy” and the ED50 ([3]; Experiment 2, Compound 1 alone) was 7.15 mg/kg. The ED50 ([3]; Experiment 2, co-administered with 3 mg/kg of clozapine) was 2.48 mg/kg and the ED50 ([3]; Experiment 2, co-administered with 5.4 mg/kg of clozapine) was 1.67 mg/kg.

— US20060258639A1, “Therapeutic combinations for the treatment or prevention of psychotic disorders” (Wyeth, priority 2005, published 2006)
